Test results from paper PMC4867592, “Targeting multiple response regulators of Mycobacterium tuberculosis augments the host immune response to infection” (Scientific Reports, 2016).
Several values for one entry are separate records, joined by “and”; a condition that tells them apart may be missing. Equal values may be shown once. Read-outs that look alike come from different tables or passages of the source.

How the values were obtained:
MtrA = target: T1, MtrA (Mycobacterium tuberculosis, UniProt P9WGM7); assay: EMSA: binding of phosphorylated MtrA to fbpB promoter DNA; set-up: species or system Mtb
T1 construct: Full length MtrA/Rv3246c excluding the stop codon; His (C); made in house; host or cells: E. coli C41(DE3)
T1 sequence (P9WGM7 1-228): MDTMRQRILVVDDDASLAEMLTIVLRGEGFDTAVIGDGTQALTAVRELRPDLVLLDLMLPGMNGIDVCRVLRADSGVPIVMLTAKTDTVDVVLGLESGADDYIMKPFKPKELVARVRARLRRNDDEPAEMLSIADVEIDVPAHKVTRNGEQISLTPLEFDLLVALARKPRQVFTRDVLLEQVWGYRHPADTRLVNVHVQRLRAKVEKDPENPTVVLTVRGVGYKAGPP

RegX3 = target: T2, RegX3 (Mycobacterium tuberculosis, UniProt P9WGL9); assay: EMSA: binding of phosphorylated RegX3 to ppk1 promoter DNA; set-up: species or system Mtb
T2 construct: made in house; host or cells: E. coli
T2 sequence (P9WGL9 1-227): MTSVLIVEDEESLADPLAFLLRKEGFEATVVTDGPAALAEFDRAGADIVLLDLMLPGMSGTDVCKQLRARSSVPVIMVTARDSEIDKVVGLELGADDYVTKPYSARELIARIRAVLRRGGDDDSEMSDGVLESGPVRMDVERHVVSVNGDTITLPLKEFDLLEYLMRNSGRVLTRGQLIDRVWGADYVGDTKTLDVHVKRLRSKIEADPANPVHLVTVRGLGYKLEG

MprA = target: T3, MprA (Mycobacterium tuberculosis, UniProt P9WGM9); assay: EMSA: binding of phosphorylated MprA to mprA promoter DNA; set-up: species or system Mtb
T3 construct: His (N); made in house; host or cells: E. coli BL21(DE3)
T3 sequence (P9WGM9 1-230): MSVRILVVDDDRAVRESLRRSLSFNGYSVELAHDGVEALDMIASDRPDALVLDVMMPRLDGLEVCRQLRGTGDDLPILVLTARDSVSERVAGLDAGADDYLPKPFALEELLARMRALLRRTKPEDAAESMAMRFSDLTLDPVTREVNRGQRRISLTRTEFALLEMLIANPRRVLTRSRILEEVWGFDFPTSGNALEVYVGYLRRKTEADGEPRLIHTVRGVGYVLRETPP

DosR = target: T4, DosR (Mycobacterium tuberculosis, UniProt P9WMF9); assay: EMSA: binding of phosphorylated DosR (DevR) to hspX promoter-derived DNA; set-up: species or system Mtb
T4 construct: His6; made in house; host or cells: E. coli C43(DE3)

Mtb [1] = assay: Alamar Blue assay of Mtb growth in vitro; type: cell-based, Mycobacterium tuberculosis H37Rv
Mtb in BMDM = assay: Mtb CFU in infected murine bone marrow derived macrophages; type: cell-based, Mycobacterium tuberculosis H37Rv; conditions: MOI 5, 20 μM, after 6 days
Mtb in hMDM = assay: Mtb CFU in infected human monocyte derived macrophages; type: cell-based, Mycobacterium tuberculosis H37Rv; conditions: MOI 5, 20 μM, after 6 days
[2] = test system: NO release from macrophages; assay: NO (nitrite) release from macrophages, Griess reagent; type: cell-based
Procedure: For NO (nitrite) measurements, RAW264.7 was infected with Mtb in DMEM for 24–48 h. Nitrite was measured using Griess reagent (Invitrogen), according to the manufacturer’s instructions. Absorbance was read at 540 nm in an ELISA reader and the concentrations of nitrite were calculated against a standard curve.
(§1) RAW 264.7 cells or hMDMs or BMDMs were seeded at ~3x10^5 cells per well on 18 mm cover slips.
(§2) After infection and treatment with C2 or isoniazid (INH) , the cells were fixed with 4% paraformaldehyde for 10 min at 25°C followed by permeabilisation with 0.01% Triton X-100 in PBS for 10 min at 25°C. The cells were then treated with 10% BSA in PBS for 90 min at 25°C followed by treatment with anti-LC3 antibody at 4°C overnight. Cells were then washed with PBS and treated with Alexa488 conjugated secondary antibody for 90 min at 25°C. Cells were visualized in a Leica confocal […]
(§3) Bacterial CFU determinations
RAW264.7 cells or hMDMs or BMDMs were plated in 48 well plates. Cells were infected with Mtb and treated with C2 or C6 for the desired periods of time. […] CFUs were calculated in triplicate using standard procedures. […] Alamar Blue was added and readings were taken upon development of […]
For NO (nitrite) measurements, RAW264.7 or MDMs or BMDMs were infected with Mtb H37Rv. […] Supernatant nitrite concentrations were measured by reading absorbance at 540 nm and calculated using a standard curve. […]

Mtb-infected macrophages = assay: Autophagy assays in Mtb-infected macrophages (LC3-II immunoblot, LC3 puncta); type: cell-based; conditions: for LC3 puncta formation in infected macrophages: BMDMs, hMDMs, RAW264.7, C2 20 μM, isoniazid 0.5 µg/ml
Procedure: For autophagy analysis, infected macrophages were lysed and immunoblotted with LC3 antibody. For the visualisation of LC3 puncta, infected macrophages were incubated with LC3 antibody followed by immunostaining with Alexa 488-conjugated secondary antibody. Images were acquired in a Leica confocal microscope. At least 100 cells were counted to enumerate the number of punctated cells. Detailed methods have been provided in the supplemental section.
as §1, §2, §3
RAW264.7 cells or hMDMs or BMDMs were plated in 48 well plates. Cells were infected with Mtb and treated with C2 or C6 for the desired periods of time. Infected cells were lysed in distilled water with 0.06% SDS. Serial dilutions of homogenates were plated on 7H11 agar plates supplemented with 10% OADC and incubated at 37 °C for 3–4 weeks. CFUs were calculated in triplicate using standard procedures. For Alamar Blue assays, bacteria from the cell lysates were washed and transferred to a 96 well plate in MB 7H9. Alamar Blue was added and readings were taken upon development of […]
For NO (nitrite) measurements, RAW264.7 or MDMs or BMDMs were infected with Mtb H37Rv. Control and infected supernatants obtained in the absence or presence of C2, were used for the measurement of nitrite using Griess reagent (Invitrogen), according to the manufacturer’s instructions. Supernatant nitrite concentrations were measured by reading absorbance at 540 nm and calculated using a standard curve. […]

Mtb [3] = type: cell-based, Mycobacterium tuberculosis H37Rv
Mtb [4] = assay: Growth curve of Mtb (absorbance at 600 nm); type: cell-based, Mycobacterium tuberculosis H37Rv
Mtb [5] = assay: qRT-PCR / semi-quantitative RT-PCR of Mtb gene expression; type: cell-based, Mycobacterium tuberculosis H37Rv
Mtb Erdman = type: cell-based, Mycobacterium tuberculosis Erdman; conditions: immunoblot
RAW264.7 = assay: Survival of RAW264.7 measured by Alamar Blue

T4 sequence (P9WMF9 whole entry): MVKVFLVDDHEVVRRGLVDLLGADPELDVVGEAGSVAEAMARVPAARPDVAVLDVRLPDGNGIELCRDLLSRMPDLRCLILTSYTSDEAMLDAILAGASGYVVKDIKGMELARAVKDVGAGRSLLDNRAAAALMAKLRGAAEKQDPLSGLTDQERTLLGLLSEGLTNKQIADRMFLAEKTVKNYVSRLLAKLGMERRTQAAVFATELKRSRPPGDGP

Compound: 2-iminothiazolidine-4-one [Compound 2]
- Inhibition of DNA binding activity of MtrA (MtrA): could inhibit DNA binding activity of MtrA
- IC50 (MtrA; densitometry, read-out: IC50, inhibition of MtrA binding to fbpB promoter): 21 µM
- Inhibition of binding ability of RegX3 (RegX3): inhibited the binding ability of RegX3
- IC50 (RegX3; densitometry, read-out: IC50, inhibition of RegX3 binding to ppk1 promoter): 18 µM
- Inhibition of binding ability of MprA (MprA): inhibited
- IC50 (MprA; densitometry, read-out: IC50, inhibition of MprA binding to mprA promoter): 4 µM
- Inhibition of DosR binding to hspX promoter-derived DNA fragment (DosR): did not inhibit binding of DosR
- In vitro IC50 against Mtb (Mtb [1]): 6 µg/mL
- In vitro MIC against Mtb (Mtb [1]): 17 μg/ml and 25 μM
- In vitro IC50 against Mtb (Mtb [1]; listed as C2): ~ 6 μg/ml
- IC50 (Mtb [1]; read-out: In vitro IC50 against Mtb): 9 µM
- Decrease in CFU of Mtb in BMDMs (Mtb in BMDM): ~ 8 fold
- Decrease in CFU of Mtb in MDMs (Mtb in hMDM): ~ 8 fold
- NO release from infected macrophages ([2]; Mtb-infected BMDMs, hMDMs, RAW264.7, 20 μM): significantly higher
- NO release from uninfected macrophages ([2]; compound alone, data not shown): did not affect NO release
- LC3 puncta formation in infected macrophages (Mtb-infected macrophages): enhanced
- Conversion of LC3-I to LC3-II (Mtb-infected macrophages; Mtb infected RAW 264.7, immunoblot): enhanced
- Retention of pBP10 by Mtb (Mtb [3]): higher levels of retention of pBP10
- Growth curve of Mtb (Mtb [4]): levelled off earlier
- Expression of activated targets sigB, sigE, Rv0081, ftsI, dnaN, pstS3 (Mtb [5]; 20 µM): repressed
- Expression of repressible targets rpfB, gltA1, cydA (Mtb [5]; 20 µM): augmented
- esxA expression (Mtb [5]; 20 µM): lowered
- Expression of espA and espR (Mtb [5]; 20 µM, 48 hours of treatment): reduced
- Expression of mtrA, regX3 and mprA (Mtb [5]; exposure for 48 h): inhibited
- ESAT-6 in the culture filtrate (Mtb Erdman): reduced amounts of ESAT-6
- Viability of RAW264.7 (RAW264.7): did not affect the viability

Compound: NNC(=O)c1ccncc1 [INH, isoniazid, reference compound]
- LC3 puncta formation in infected macrophages (Mtb-infected macrophages): enhanced
